Counter-ions that a name gives are not always drawn. Like-named read-outs stand apart in the source and are kept apart here.
What was measured:
NO synthase = experiment: Assay Protocol for NOS activity: % inhibition at 50 uM (formation of L-[3H]citrulline from L-[3H]arginine); type: biochemical
Description: (§1) Assay Protocol for NOS activity
(§2) NOS activity is measured as the formation of L-[2,3,4,5-^3 H]Citrullinefrom L-[2,3,4,5-^3 H]Arginine. The incubation buffer (100 μL) contained; 100 mM TES, pH 7.5, 5 μM FAD, 5 μM FMN, 10 μM BH4, 0.5 mM NADPH, 0.5 mM DTT, 0.5 mg/mL BSA, 2 mM CaCl2, 10 μg/mL calmodulin (bovine), 1 μM L-Arg, 0.2 μCi L-[2,3,4,5-^3 H]Arg, and the inhibitor in aqueous DMSO (max. 5%). The reaction is initiated by addition of enzyme. Incubations are performed at room temperature for 30 minutes and stopped by the addition of an equal volume of quenching buffer consisting of 200 mM sodium citrate, pH 2.2, 0.02% sodium azide. Reaction products are separated by passing through a cation exchange resin and quantitated as cpm by scintillation counting.

iNOS = iNOS (Homo sapiens, UniProt P35228); experiment: NOS activity assay, iNOS (L-[3H]citrulline formation); type: biochemical
Description: as §1, §2

ecNOS = ecNOS (Homo sapiens, UniProt P29474); experiment: NOS activity assay, ecNOS (L-[3H]citrulline formation); type: biochemical
Description: as §1, §2

ncNOS = ncNOS (Homo sapiens, UniProt P29475); experiment: biochemical
Chain of ncNOS (P29475 whole entry): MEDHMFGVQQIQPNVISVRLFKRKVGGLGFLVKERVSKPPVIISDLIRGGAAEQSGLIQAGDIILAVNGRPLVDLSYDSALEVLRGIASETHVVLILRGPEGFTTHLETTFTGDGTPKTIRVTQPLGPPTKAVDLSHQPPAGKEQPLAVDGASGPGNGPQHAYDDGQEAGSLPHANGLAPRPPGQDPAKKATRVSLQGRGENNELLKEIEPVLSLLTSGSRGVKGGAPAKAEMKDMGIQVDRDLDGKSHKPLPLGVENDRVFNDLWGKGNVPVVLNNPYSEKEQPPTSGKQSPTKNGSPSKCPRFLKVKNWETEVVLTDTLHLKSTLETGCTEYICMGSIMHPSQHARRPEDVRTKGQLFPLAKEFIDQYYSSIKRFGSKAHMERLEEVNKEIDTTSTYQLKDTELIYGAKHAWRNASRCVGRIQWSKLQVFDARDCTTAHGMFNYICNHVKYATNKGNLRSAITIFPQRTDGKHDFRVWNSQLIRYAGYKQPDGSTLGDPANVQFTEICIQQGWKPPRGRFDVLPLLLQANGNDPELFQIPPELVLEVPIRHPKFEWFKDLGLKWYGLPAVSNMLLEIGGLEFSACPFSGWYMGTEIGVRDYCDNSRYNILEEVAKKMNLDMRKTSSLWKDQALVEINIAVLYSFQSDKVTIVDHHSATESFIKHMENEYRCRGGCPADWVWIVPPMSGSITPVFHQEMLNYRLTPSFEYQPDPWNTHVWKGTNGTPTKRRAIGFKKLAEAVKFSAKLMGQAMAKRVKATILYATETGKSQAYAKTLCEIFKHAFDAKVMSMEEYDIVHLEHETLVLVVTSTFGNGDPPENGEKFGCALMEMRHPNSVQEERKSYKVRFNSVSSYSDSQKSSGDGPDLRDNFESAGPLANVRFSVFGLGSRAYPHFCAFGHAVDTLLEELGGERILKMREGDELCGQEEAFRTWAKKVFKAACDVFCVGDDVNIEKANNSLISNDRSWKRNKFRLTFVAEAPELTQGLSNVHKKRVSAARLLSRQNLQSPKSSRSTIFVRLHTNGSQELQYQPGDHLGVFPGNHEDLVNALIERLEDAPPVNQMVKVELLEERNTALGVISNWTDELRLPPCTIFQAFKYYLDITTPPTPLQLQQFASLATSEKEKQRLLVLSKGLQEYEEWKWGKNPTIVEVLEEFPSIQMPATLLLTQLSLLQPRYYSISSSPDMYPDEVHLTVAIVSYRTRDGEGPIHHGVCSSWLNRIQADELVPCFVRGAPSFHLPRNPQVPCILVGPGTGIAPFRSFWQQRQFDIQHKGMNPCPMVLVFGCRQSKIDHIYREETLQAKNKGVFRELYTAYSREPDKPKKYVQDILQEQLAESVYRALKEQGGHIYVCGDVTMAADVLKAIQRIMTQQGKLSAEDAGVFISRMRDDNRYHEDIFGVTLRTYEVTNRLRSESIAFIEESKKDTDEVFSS

SMILES: N=C1CCCCCN1
- % inhibition (NO synthase; Table 3): 96%

SMILES: N=C1CCCCCCN1
- % inhibition (NO synthase; Table 3): 100%

SMILES: N=C1CCCCCCCN1
- % inhibition (NO synthase; Table 3): 100%

SMILES: CC1CCC(=N)N1 (centres unmarked) [Table 1: CH3, H, H]
- % inhibition (NO synthase; Table 1): 98%

SMILES: N=C1CCCN1 [Table 1: H, H, H]
- % inhibition (NO synthase; Table 1): 90%

SMILES: c1ccc(CNC2=NCCCCC2)cc1 [Table 2: CH2 -phenyl]
- % inhibition (NO synthase; Table 2): 3%

SMILES: CCNC1=NCCCCC1 [Table 2: CH2 CH3]
- % inhibition (NO synthase; Table 2): 55%

SMILES: CNC1=NCCCCC1 [Table 2: CH3]
- % inhibition (NO synthase; Table 2): 3%

SMILES: C1CCN=C(NC2CCCCC2)CC1 [Table 2: cyclohexyl]
- % inhibition (NO synthase; Table 2): 8%

SMILES: CC(=O)OC[C@H]1CCC(=N)N1 [Table 4: H, H, (R)-CH2OAc, H, H, 2-Imino-5-(R)-acetyloxymethylpyrrolidine hydrochloride]
- IC50 (iNOS; Table 4, read-out: IC50 iNOS): > 50 µM
- IC50 (ecNOS; Table 4, read-out: IC50 ecNOS): > 50 µM
- IC50 (ncNOS; Table 4, read-out: IC50 ncNOS): > 50 µM

SMILES: N=C1CC[C@H](CO)N1 [Table 4: H, H, (R)-CH2OH, H, H, 2-Imino-5-(R)-hydroxymethylpyrrolidine hydrochloride]
- IC50 (iNOS; Table 4, read-out: IC50 iNOS): ≤ 50 µM
- IC50 (ecNOS; Table 4, read-out: IC50 ecNOS): ≤ 50 µM
- IC50 (ncNOS; Table 4, read-out: IC50 ncNOS): ≤ 50 µM

SMILES: CC(=O)OC[C@@H]1CCC(=N)N1 [Table 4: H, H, (S)-CH2OAc, H, H, 2-Imino-5-(S)-acetyloxymethylpyrrolidine hydrochloride]
- IC50 (iNOS; Table 4, read-out: IC50 iNOS): ≤ 50 µM
- IC50 (ecNOS; Table 4, read-out: IC50 ecNOS): > 50 µM
- IC50 (ncNOS; Table 4, read-out: IC50 ncNOS): ≤ 10 µM

SMILES: N=C1CC[C@@H](CO)N1 [Table 4: H, H, (S)-CH2OH, H, H, 2-Imino-5-(S)-hydroxymethylpyrrolidine hydrochloride]
- IC50 (iNOS; Table 4, read-out: IC50 iNOS): ≤ 10 µM
- IC50 (ecNOS; Table 4, read-out: IC50 ecNOS): > 50 µM
- IC50 (ncNOS; Table 4, read-out: IC50 ncNOS): ≤ 50 µM

SMILES: CCC1CCC(=N)N1 (centres unmarked) [Table 4: H, H, C2H5, H, H]
- IC50 (iNOS; Table 4, read-out: IC50 iNOS): ≤ 50 µM
- IC50 (ecNOS; Table 4, read-out: IC50 ecNOS): ≤ 10 µM
- IC50 (ncNOS; Table 4, read-out: IC50 ncNOS): ≤ 10 µM

SMILES: CC1CCC(N)=N1 (centres unmarked) [Table 4: H, H, CH3, H, H, 2-Imino-5-methylpyrrolidine hydrochloride]
- IC50 (iNOS): ≤ 10 µM
- IC50 (ecNOS; Table 4, read-out: IC50 ecNOS): ≤ 10 µM
- IC50 (ncNOS): ≤ 10 µM

SMILES: Oc1ccc(CCNC2=NCCC2)cc1O [Table 4: H, H, H, H, C2 H4 Ph-3,4-(OH)2, 1-Aza-2-((3,4-dihydroxyphenyl)ethyl)amino-1-cyclopentene hydrochloride]
- IC50 (iNOS; Table 4, read-out: IC50 iNOS): > 50 µM
- IC50 (ecNOS; Table 4, read-out: IC50 ecNOS): > 50 µM
- IC50 (ncNOS; Table 4, read-out: IC50 ncNOS): > 50 µM

SMILES: NC1=NCCC1 [Table 4: H, H, H, H, H, 1-Aza-2-imino-cyclopentane hydrochloride]
- IC50 (iNOS; Table 4, read-out: IC50 iNOS): ≤ 10 µM
- IC50 (ecNOS): ≤ 10 µM
- IC50 (ncNOS): ≤ 10 µM

SMILES: CC(C)C1CN=C(N)C1 (centres unmarked) [Table 4: H, i-C3H7, H, H, H, 2-Imino-4-(2-methyl-ethyl)pyrrolidine hydrochloride]
- IC50 (iNOS; Table 4, read-out: IC50 iNOS): ≤ 10 µM
- IC50 (ecNOS; Table 4, read-out: IC50 ecNOS): > 50 µM
- IC50 (ncNOS; Table 4, read-out: IC50 ncNOS): ≤ 50 µM

SMILES: CCCC1CC(N)=NC1CC (centres unmarked) [Table 4: H, n-C3H7, C2H5, H, H, 2-Imino-5-ethyl-4-propylpyrrolidine hydrochloride]
- IC50 (iNOS; Table 4, read-out: IC50 iNOS): ≤ 50 µM
- IC50 (ecNOS; Table 4, read-out: IC50 ecNOS): > 50 µM
- IC50 (ncNOS; Table 4, read-out: IC50 ncNOS): ≤ 50 µM

SMILES: CCCC1CC(N)=NC1C (centres unmarked) [Table 4: H, n-C3H7, CH3, H, H, 2-Imino-5-methyl-4-propylpyrrolidine hydrochloride]
- IC50 (iNOS; Table 4, read-out: IC50 iNOS): ≤ 50 µM
- IC50 (ecNOS; Table 4, read-out: IC50 ecNOS): > 50 µM
- IC50 (ncNOS; Table 4, read-out: IC50 ncNOS): ≤ 50 µM

SMILES: CCCC1CN=C(N)C1 (centres unmarked) [Table 4: H, n-C3H7, H, H, H, 2-Imino-4-propylpyrrolidine hydrochloride]
- IC50 (iNOS; Table 4, read-out: IC50 iNOS): ≤ 50 µM
- IC50 (ecNOS; Table 4, read-out: IC50 ecNOS): > 50 µM
- IC50 (ncNOS; Table 4, read-out: IC50 ncNOS): > 50 µM

SMILES: N=C1NCCC1S (centres unmarked) [Table 4: SH, H, H, H, H]
- IC50 (iNOS; Table 4, read-out: IC50 iNOS): ≤ 50 µM
- IC50 (ecNOS; Table 4, read-out: IC50 ecNOS): ≤ 50 µM
- IC50 (ncNOS; Table 4, read-out: IC50 ncNOS): ≤ 1 µM

SMILES: NC1=NCCc2ccccc21 [Table 5: C, (CH)4, H, H, H, H]
- IC50 (iNOS; Table 5, read-out: IC50 iNOS): ≤ 10 µM
- IC50 (ecNOS; Table 5, read-out: IC50 ecNOS): ≤ 50 µM
- IC50 (ncNOS; Table 5, read-out: IC50 ncNOS): ≤ 10 µM

SMILES: CC1CNC(=N)C(C)C1 (centres unmarked) [Table 5: CH2, CH3, H, CH3, H, H, H, 2-Imino-3,5-dimethylpiperidine hydrochloride]
- IC50 (iNOS; Table 5, read-out: IC50 iNOS): ≤ 50 µM
- IC50 (ecNOS; Table 5, read-out: IC50 ecNOS): ≤ 50 µM
- IC50 (ncNOS; Table 5, read-out: IC50 ncNOS): ≤ 1 µM

SMILES: CC1CCCN=C1N (centres unmarked) [Table 5: CH2, CH3, H, H, H, H, H, 2-Imino-3-methylpiperidine hydrochloride]
- IC50 (iNOS): ≤ 10 µM
- IC50 (ecNOS): ≤ 10 µM
- IC50 (ncNOS; Table 5, read-out: IC50 ncNOS): ≤ 1 µM

SMILES: CC1(C)CCC(=N)NC1 [Table 5: CH2, H, H, (CH3)2, H, H, H, 2-Imino-5,5-dimethylpiperidine hydrochloride]
- IC50 (iNOS; Table 5, read-out: IC50 iNOS): ≤ 10 µM
- IC50 (ecNOS; Table 5, read-out: IC50 ecNOS): ≤ 50 µM
- IC50 (ncNOS; Table 5, read-out: IC50 ncNOS): ≤ 10 µM

SMILES: NC1=Nc2ccccc2CC1 [Table 5: CH2, H, H, (CH)4, H, H, 3,4-Dihydro-2-aminoquinoline hydrochloride]
- IC50 (iNOS; Table 5, read-out: IC50 iNOS): ≤ 50 µM
- IC50 (ecNOS; Table 5, read-out: IC50 ecNOS): > 50 µM
- IC50 (ncNOS; Table 5, read-out: IC50 ncNOS): ≤ 10 µM

SMILES: N=C1CCC(C(F)(F)F)CN1 (centres unmarked) [Table 5: CH2, H, H, CF3, H, H, H, 2-Imino-5-trifluoro-piperidine]
- IC50 (iNOS; Table 5, read-out: IC50 iNOS): ≤ 10 µM
- IC50 (ecNOS; Table 5, read-out: IC50 ecNOS): > 50 µM
- IC50 (ncNOS; Table 5, read-out: IC50 ncNOS): > 50 µM

SMILES: CCCOC1CCC(=N)NC1 (centres unmarked) [Table 5: CH2, H, H, O-n-C3H7, H, H, H, 2-Imino-5-n-propyloxy-piperidine, acetic acid salt]
- IC50 (iNOS; Table 5, read-out: IC50 iNOS): ≤ 1 µM
- IC50 (ecNOS; Table 5, read-out: IC50 ecNOS): ≤ 10 µM
- IC50 (ncNOS; Table 5, read-out: IC50 ncNOS): ≤ 10 µM

SMILES: CC1C(=N)NCC2CCCC21 (stereo not drawn) [Table 5: CH, CH3, (CH2)3, H, H, H, 4-Imino-5-cis-methyl-3-azabicyclo[4.3.0]nonane, hydrochloride]
- IC50 (iNOS; Table 5, read-out: IC50 iNOS): ≤ 10 µM
- IC50 (ecNOS; Table 5, read-out: IC50 ecNOS): > 50 µM
- IC50 (ncNOS; Table 5, read-out: IC50 ncNOS): ≤ 10 µM

SMILES: CO[C@@H]1CNC(=N)C[C@@H]1C [Table 5: CH, H, (S)CH3, (S)OCH3, H, H, H, hydrochloride]
- IC50 (iNOS; Table 5, read-out: IC50 iNOS): ≤ 1 µM
- IC50 (ecNOS; Table 5, read-out: IC50 ecNOS): ≤ 1 µM
- IC50 (ncNOS; Table 5, read-out: IC50 ncNOS): ≤ 1 µM

SMILES: C[C@H]1CC(=N)NC[C@H]1O [Table 5: CH, H, (S)CH3, (S)OH, H, H, H, 2-Imino-5(S)-hydroxy-4(S)-methyl-piperidine, hydrochloride]
- IC50 (iNOS; Table 5, read-out: IC50 iNOS): ≤ 1 µM
- IC50 (ecNOS; Table 5, read-out: IC50 ecNOS): ≤ 10 µM
- IC50 (ncNOS; Table 5, read-out: IC50 ncNOS): ≤ 1 µM

SMILES: CC1CNC(=N)CC1C (centres unmarked) [Table 5: CH, H, CH3, CH3, H, H, H]
- IC50 (iNOS; Table 5, read-out: IC50 iNOS): ≤ 1 µM
- IC50 (ecNOS; Table 5, read-out: IC50 ecNOS): ≤ 1 µM
- IC50 (ncNOS; Table 5, read-out: IC50 ncNOS): ≤ 1 µM

SMILES: CCCC1CCN=C(N)C1 (centres unmarked) [Table 5: CH, H, n-C3H7, H, H, H, H, 2-Imino-4-propylpiperidine hydrochloride]
- IC50 (iNOS; Table 5, read-out: IC50 iNOS): ≤ 10 µM
- IC50 (ecNOS; Table 5, read-out: IC50 ecNOS): > 50 µM
- IC50 (ncNOS; Table 5, read-out: IC50 ncNOS): > 50 µM

SMILES: CC(C)(C)OC(=O)N1CCNC(=N)C1 [Table 5: N, H, CO2-t-C4H9, H, H, H, H, 4-t-Butoxycarbonyl-2-iminopiperazine hydrochloride]
- IC50 (iNOS; Table 5, read-out: IC50 iNOS): ≤ 50 µM
- IC50 (ecNOS; Table 5, read-out: IC50 ecNOS): > 50 µM
- IC50 (ncNOS; Table 5, read-out: IC50 ncNOS): > 50 µM

SMILES: N=C1CNC2CCCCC2N1 (centres unmarked) [Table 5: N, H, H, (CH2)4, H, H]
- IC50 (iNOS): ≤ 10 µM
- IC50 (ecNOS): > 50 µM
- IC50 (ncNOS; Table 5, read-out: IC50 ncNOS): ≤ 50 µM

SMILES: N=C1CNCCN1 [Table 5: N, H, H, H, H, H, H, 2-Iminopiperazine hydrochloride]
- IC50 (iNOS; Table 5, read-out: IC50 iNOS): ≤ 50 µM
- IC50 (ecNOS; Table 5, read-out: IC50 ecNOS): > 50 µM
- IC50 (ncNOS; Table 5, read-out: IC50 ncNOS): ≤ 50 µM

SMILES: N=C1CSCCN1 [Table 5: S, H, --, H, H, H, H, 3-Iminothiomorpholine hydrochloride]
- IC50 (iNOS; Table 5, read-out: IC50 iNOS): ≤ 1 µM
- IC50 (ecNOS; Table 5, read-out: IC50 ecNOS): ≤ 10 µM
- IC50 (ncNOS; Table 5, read-out: IC50 ncNOS): ≤ 1 µM

SMILES: N=C1CCCN1 [drawing 15]
- % inhibition (NO synthase; Table 3): 90%

SMILES: N=C1CCCCN1 [drawing 16]
- % inhibition (NO synthase; Table 3): 100%
